In US10703764B2, “Benzopiperazine compositions as BET bromodomain inhibitors” (FORMA Therapeutics, Inc., priority 2013, dated 2020):

Assays:
BRD4 BD2 = molecular target: T1, BRD4 BD2 (Homo sapiens, UniProt O60885); assay: AlphaScreen binding assay, BRD4 Bromodomain 2
T1 construct: made in house
In short: (§1)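 Compound dilution series were mixed with His-tagged BRD4 bromodomain and biotinylated tetra-acetylated H4 (1-21) peptide at pH 7.3 (BD1 and peptide at 50 nM, BD2 and peptide at 100 nM). Donor and acceptor beads were then added, and plates were equilibrated at least 1 h before reading. IC50 values were fitted with a four-parameter logistic model.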

BRD4 BD1 = molecular target: T2, BRD4 BD1 (Homo sapiens, UniProt O60885); assay: AlphaScreen binding assay, BRD4 Bromodomain 1
T2 construct: made in house
In short: as §1

MV4-11 cells = assay: Oncology cell growth assay (3-day proliferation, CellTiter-Glo); format: cell-based; details: Homo sapiens, MV4-11, 72 h, AML cell line MV4-11, 72 hours, compounds grouped by IC50 range, read-out: MV4-11 IC50 (inhibition of proliferation, gIC50)
In short: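 Luminescence from CellTiter-Glo served as the growth read-out after MV4-11 cells (3000/well) were cultured with compound for 72 hours. Final concentrations spanned 10 to 0.0045 μM in 3-fold steps. gIC50 values were derived by four-parameter logistic fitting relative to DMSO and cell-free controls.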

SMILES | IC50 (BRD4 BD2) [nM] | IC50 (BRD4 BD1) [nM] | IC50 (MV4-11 cells) [nM]
CC(=O)N1c2ccc(-c3ccc(C(=O)N4C[C@H]5CCN(C)[C@H]5C4)cc3)cc2N(C(=O)OC(C)C)C[C@@H]1C [Example I-555] | 50 to 500 | 100 to 1000 | < 100
CC(C)OC(=O)N1C[C@H](C)N(C(=O)C2CC2)c2ccc(-c3ccc(C(=O)N4CCNCC4)cc3)cc21 [Example I-558] | 50 to 500 | 100 to 1000 | 100 to 500
COC(=O)N1c2ccc(-c3ccc(C(=O)N4CCNCC4)cc3)cc2N(C(=O)OC(C)C)C[C@@H]1C [Example I-559] | 50 to 500 | 100 to 1000 | 100 to 500
COC(=O)N1c2ccc(-c3ccc(C(=O)N(C)CC(=O)N(C)C)cc3)cc2N(C(=O)OC(C)C)C[C@@H]1C [Example I-561] | 50 to 500 | < 100 | 100 to 500
CNC(=O)CN(C)C(=O)c1ccc(-c2ccc3c(c2)N(C(=O)OC(C)C)C[C@H](C)N3C(=O)C2CC2)cc1 [Example I-562] | 50 to 500 | 100 to 1000 | 100 to 500
CNC(=O)CN(C)C(=O)c1ccc(-c2ccc3c(c2)N(C(=O)OC(C)C)C[C@H](C)N3C(=O)OC)cc1 [Example I-563] | 50 to 500 | 100 to 1000 | 100 to 500
CC(C)OC(=O)N1C[C@H](C)N(C(=O)C2CC2)c2ccc(-c3ccc(C(=O)N4CC[C@@H](N(C)C)C4)cc3)cc21 [Example I-564] | 50 to 500 | 100 to 1000 | 100 to 500
COC(=O)N1c2ccc(-c3ccc(C(=O)N4CC[C@@H](N(C)C)C4)cc3)cc2N(C(=O)OC(C)C)C[C@@H]1C [Example I-565] | 50 to 500 | 100 to 1000 | 100 to 500
CC(C)OC(=O)N1C[C@H](C)N(C(=O)C2CC2)c2ccc(-c3ccc(C(=O)N4CC[C@H](N(C)C)C4)cc3)cc21 [Example I-566] | 50 to 500 | 100 to 1000 | 100 to 500
COC(=O)N1c2ccc(-c3ccc(C(=O)N4CC[C@H](N(C)C)C4)cc3)cc2N(C(=O)OC(C)C)C[C@@H]1C [Example I-567] | 50 to 500 | 100 to 1000 | 100 to 500
CC(=O)N[C@@H]1CCN(C(=O)c2ccc(-c3ccc4c(c3)N(C(=O)OC(C)C)C[C@H](C)N4C(=O)C3CC3)cc2)C1 [Example I-568] | 50 to 500 | 100 to 1000 | 100 to 500
COC(=O)N1c2ccc(-c3ccc(C(=O)N4CC[C@@H](NC(C)=O)C4)cc3)cc2N(C(=O)OC(C)C)C[C@@H]1C [Example I-569] | 50 to 500 | 100 to 1000 | 100 to 500
CC(=O)N[C@H]1CCN(C(=O)c2ccc(-c3ccc4c(c3)N(C(=O)OC(C)C)C[C@H](C)N4C(=O)C3CC3)cc2)C1 [Example I-570] | 50 to 500 | 100 to 1000 | 100 to 500
COC(=O)N1c2ccc(-c3ccc(C(=O)N4CC[C@H](NC(C)=O)C4)cc3)cc2N(C(=O)OC(C)C)C[C@@H]1C [Example I-571] | 50 to 500 | 100 to 1000 | 100 to 500
CC(C)OC(=O)N1C[C@H](C)N(C(=O)C2CC2)c2ccc(-c3ccc(C(=O)N4CCN(S(C)(=O)=O)CC4)cc3)cc21 [Example I-572] | > 500 | 100 to 1000 | 100 to 500
COC(=O)N1c2ccc(-c3ccc(C(=O)N4CCN(S(C)(=O)=O)CC4)cc3)cc2N(C(=O)OC(C)C)C[C@@H]1C [Example I-573] | 50 to 500 | 100 to 1000 | 100 to 500
CC(C)OC(=O)N1C[C@H](C)N(C(=O)C2CC2)c2ccc(-c3ccc(C(=O)N4CC[C@H](O)C4)cc3)cc21 [Example I-574] | 50 to 500 | 100 to 1000 | > 500
COC(=O)N1c2ccc(-c3ccc(C(=O)N4CC[C@H](O)C4)cc3)cc2N(C(=O)OC(C)C)C[C@@H]1C [Example I-575] | 50 to 500 | 100 to 1000 | 100 to 500
CC(C)OC(=O)N1C[C@H](C)N(C(=O)C2CC2)c2ccc(-c3ccc(C(=O)N4CC[C@@H](O)C4)cc3)cc21 [Example I-576] | 50 to 500 | 100 to 1000 | 100 to 500
COC(=O)N1c2ccc(-c3ccc(C(=O)N4CC[C@@H](O)C4)cc3)cc2N(C(=O)OC(C)C)C[C@@H]1C [Example I-577] | 50 to 500 | 100 to 1000 | > 500
CC(C)OC(=O)N1C[C@H](C)N(C(=O)C2CC2)c2ccc(-c3ccc(C(=O)N4CC(O)C4)cc3)cc21 [Example I-578] | 50 to 500 | 100 to 1000 | 100 to 500
COC(=O)N1c2ccc(-c3ccc(C(=O)N4CC(O)C4)cc3)cc2N(C(=O)OC(C)C)C[C@@H]1C [Example I-579] | 50 to 500 | 100 to 1000 | 100 to 500
CC(=O)N1c2ccc(-c3ccc(C(=O)N4C[C@@H]5C[C@H]4CN5)cc3)cc2N(C(=O)OC(C)C)C[C@@H]1C [Example I-593] | 50 to 500 | 100 to 1000 | 100 to 500
CC(=O)N1c2ccc(-c3ccc(C(=O)N[C@H]4C[C@H]5CC[C@@H](C4)N5)cc3)cc2N(C(=O)OC(C)C)C[C@@H]1C [Example I-594] | 50 to 500 | 100 to 1000 | 100 to 500

The next lines start with the values.

IC50 (BRD4 BD2) [nM] | IC50 (BRD4 BD1) [nM] | IC50 (MV4-11 cells) [nM] | SMILES
50 to 500 | 100 to 1000 | < 100 | CC(=O)N1c2ccc(-c3ccc(C(=O)N4CCCN(C)CC4)cc3)cc2N(C(=O)OC(C)C)C[C@@H]1C [Example I-553]
< 50 | < 100 | 100 to 500 | CNC(=O)CN(C)C(=O)c1ccc(-c2ccc3c(c2)N(C(=O)OC(C)C)C[C@H](C)N3C(C)=O)cc1 [Example I-554]
50 to 500 | 100 to 1000 | 100 to 500 | CC(=O)N1c2ccc(-c3ccc(C(=O)N4CCNCC4)cc3)cc2N(C(=O)OC(C)C)C[C@@H]1C [Example I-557]
50 to 500 | 100 to 1000 | 100 to 500 | CC(=O)N1c2ccc(-c3ccc(C(=O)N4CC[C@H](O)C4)cc3)cc2N(C(=O)OC(C)C)C[C@@H]1C [Example I-580]
50 to 500 | 100 to 1000 | 100 to 500 | CC(=O)N1c2ccc(-c3ccc(C(=O)N4CC[C@@H](O)C4)cc3)cc2N(C(=O)OC(C)C)C[C@@H]1C [Example I-581]
50 to 500 | 100 to 1000 | 100 to 500 | CC(=O)N1c2ccc(-c3ccc(C(=O)N4CC(O)C4)cc3)cc2N(C(=O)OC(C)C)C[C@@H]1C [Example I-582]
50 to 500 | 100 to 1000 | 100 to 500 | CC(=O)N1c2ccc(-c3ccc(C(=O)NCc4ncco4)cc3)cc2N(C(=O)OC(C)C)C[C@@H]1C [Example I-584]
50 to 500 | 100 to 1000 | 100 to 500 | CC(=O)N1c2ccc(-c3ccc(C(=O)N4CC[C@H](N)C4)cc3)cc2N(C(=O)OC(C)C)C[C@@H]1C [Example I-586]
50 to 500 | 100 to 1000 | 100 to 500 | CC(=O)N1c2ccc(-c3ccc(C(=O)N4CCC[C@@H](N)C4)cc3)cc2N(C(=O)OC(C)C)C[C@@H]1C [Example I-589]
50 to 500 | 100 to 1000 | 100 to 500 | CC(=O)N1c2ccc(-c3ccc(C(=O)N4CCC(N)CC4)cc3)cc2N(C(=O)OC(C)C)C[C@@H]1C [Example I-590]
50 to 500 | 100 to 1000 | 100 to 500 | CC(=O)N1c2ccc(-c3ccc(C(=O)N4CCCC[C@@H]4CN)cc3)cc2N(C(=O)OC(C)C)C[C@@H]1C [Example I-591]
50 to 500 | 100 to 1000 | 100 to 500 | CC(=O)N1c2ccc(-c3ccc(C(=O)N4CCC[C@@H]4CN)cc3)cc2N(C(=O)OC(C)C)C[C@@H]1C [Example I-592]
50 to 500 | 100 to 1000 | 100 to 500 | CC(=O)N1c2ccc(-c3cnn(CC4CCS(=O)(=O)CC4)c3)cc2N(C(=O)OC(C)C)C[C@@H]1C [Example I-595]
< 50 | 100 to 1000 | 100 to 500 | CC(=O)N1c2ccc(-c3cnn(CC(=O)N(C)C4CC4)c3)cc2N(C(=O)OC(C)C)C[C@@H]1C [Example I-596]
50 to 500 | 100 to 1000 | 100 to 500 | CC(=O)N1c2ccc(-c3cnn(CCN4CCCS4(=O)=O)c3)cc2N(C(=O)OC(C)C)C[C@@H]1C [Example I-597]
50 to 500 | 100 to 1000 | 100 to 500 | CC(=O)N1c2ccc(-c3cnn(CCn4ccnc4)c3)cc2N(C(=O)OC(C)C)C[C@@H]1C [Example I-598]
< 50 | 100 to 1000 | 100 to 500 | CC(=O)N1c2ccc(-c3cnn(CC(=O)N4CCCCC4)c3)cc2N(C(=O)OC(C)C)C[C@@H]1C [Example I-599]
< 50 | < 100 | 100 to 500 | CC(=O)N1c2ccc(-c3cnn(CC4(CO)COC4)c3)cc2N(C(=O)OC(C)C)C[C@@H]1C [Example I-600]
< 50 | 100 to 1000 | 100 to 500 | CC(=O)N1c2ccc(-c3cnn(Cc4c[nH]cn4)c3)cc2N(C(=O)OC(C)C)CC1C (stereo not drawn) [Example I-601]
< 50 | 100 to 1000 | 100 to 500 | CC(=O)N1c2ccc(-c3cnn(Cc4c(C)noc4C)c3)cc2N(C(=O)OC(C)C)C[C@@H]1C [Example I-602]
50 to 500 | 100 to 1000 | 100 to 500 | CC(=O)N1c2ccc(-c3cnn(CC4CCC4)c3)cc2N(C(=O)OC(C)C)C[C@@H]1C [Example I-603]
50 to 500 | < 100 | 100 to 500 | CC(=O)N1c2ccc(-c3cnn(CC(F)(F)F)c3)cc2N(C(=O)OC(C)C)C[C@@H]1C [Example I-604]
